Twelve molecules from US20230365592A1 (Agios Pharmaceuticals, Inc., priority 2022, published 2023) can be followed below.

In general, AC50 refers to the midpoint of the concentration-response curve, whichever way the signal moves.

In the first test the target is T1, human PAH with the R408W mutation (Homo sapiens, UniProt P00439, R408W).
T1 construct: expressed in transfected cells
T1 sequence (P00439 1-452 R408W): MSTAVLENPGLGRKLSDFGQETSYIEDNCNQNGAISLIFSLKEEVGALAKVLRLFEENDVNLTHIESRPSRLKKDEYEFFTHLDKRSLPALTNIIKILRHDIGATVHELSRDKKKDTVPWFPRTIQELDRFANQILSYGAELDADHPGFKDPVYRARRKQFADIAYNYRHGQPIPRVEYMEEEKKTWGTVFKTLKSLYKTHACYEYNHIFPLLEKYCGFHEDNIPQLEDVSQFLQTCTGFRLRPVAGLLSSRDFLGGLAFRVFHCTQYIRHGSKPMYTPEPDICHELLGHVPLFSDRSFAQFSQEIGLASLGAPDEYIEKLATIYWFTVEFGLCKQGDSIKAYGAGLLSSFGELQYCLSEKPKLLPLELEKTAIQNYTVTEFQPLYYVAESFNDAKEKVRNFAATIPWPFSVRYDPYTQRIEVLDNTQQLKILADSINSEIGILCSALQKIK
Nature of the test: Cell Based Phenylalanine Flux Assay.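 Further: after compound treatment, cells received sepiapterin plus isotope-labelled Phenylalanine for 4 hours, then labelled Tyrosine in the medium was quantified, 10-point 2-fold dilution series run in duplicate.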 Conditions: A375 cells expressing R408W PAH; 24 hrs with compound, then 20 µM sepiapterin and 800 µM 13C9,15N-Phenylalanine for 4 hours; 13C-Tyrosine by LC-MS; average where tested multiple times; read-out: AC50.
With `Cc1nc(C(C)(C)O)oc1C(=O)N1CCc2[nH]cnc2C1c1cc2cccc(C(F)(F)F)n2n1` (stereo not drawn), the AC50 was 1000 to 5000 nM.
Take `Fc1ncccc1-c1nnc(N2CCc3[nH]cnc3C2c2cc3c(C(F)(F)F)cccn3n2)o1` (stereo not drawn): the AC50 was in the range of 1000 to 5000 nM.
Consider `Cc1ccn2nc(C3c4nc[nH]c4CCN3C(=O)c3nnc(C4CC4)o3)cc2c1` (stereo not drawn), for which the AC50 lay within 1000 to 5000 nM.

Still in this test, the particulars now being: A375 cells expressing human PAH R408W; 24 hrs compound incubation; 13C-Tyrosine by LC-MS; average where tested multiple times; read-out: AC50.
For `FC(F)(F)c1nnc(N2CCc3[nH]cnc3[C@@H]2c2cc3c(C(F)(F)F)cccn3n2)o1` [Example 1820, (R)-2-(trifluoromethyl)-5-(4-(4-(trifluoromethyl)pyrazolo[1,5-a]pyridin-2-yl)-6,7-dihydro-1H-imidazo[4,5-c]pyridin-5(4H)-yl)-1,3,4-oxadiazole], the AC50 is above 5000 nM.

Still in this test, the particulars now being: A375 cells expressing human R408W PAH; 24 hrs compound incubation; 13C-Tyrosine by LC-MS; average where tested multiple times; read-out: AC50.
As for `O=C(c1nnc(C2CCC2)o1)N1CCc2[nH]cnc2[C@@H]1c1cc2c(C(F)F)cccn2n1` [Example 1521, (R)-(5-cyclobutyl-1,3,4-oxadiazol-2-yl)(4-(4-(difluoromethyl)pyrazolo[1,5-a]pyridin-2-yl)-6,7-dihydro-1H-imidazo[4,5-c]pyridin-5(4H)-yl)methanone], the concentration at half-maximal activity (AC50) lay within 1000 to 5000 nM.
With `Cc1cccc2cc([C@@H]3c4nc[nH]c4CCN3C(=O)c3oc(C(C)(C)O)nc3C(F)(F)F)nn12` [Example 1150, (S)-(2-(2-hydroxypropan-2-yl)-4-(trifluoromethyl)oxazol-5-yl)(4-(7-methylpyrazolo[1,5-a]pyridin-2-yl)-6,7-dihydro-1H-imidazo[4,5-c]pyridin-5(4H)-yl)methanone], the AC50 was below 500 nM.
For the molecule `O=C(c1nnc(-c2cnn(C(F)(F)F)c2)o1)N1CCc2[nH]cnc2[C@H]1c1cc2c(C(F)F)cccn2n1` [Example 1570, (S)-(4-(4-(difluoromethyl)pyrazolo[1,5-a]pyridin-2-yl)-6,7-dihydro-1H-imidazo[4,5-c]pyridin-5(4H)-yl)(5-(1-(trifluoromethyl)-1H-pyrazol-4-yl)-1,3,4-oxadiazol-2-yl)methanone], the AC50 was below 500 nM.
For `Cc1c(-c2nnc(C(=O)N3CCc4[nH]cnc4[C@H]3c3cc4c(C(F)F)cccn4n3)o2)cnn1C` [Example 1348, (S)-(4-(4-(difluoromethyl)pyrazolo[1,5-a]pyridin-2-yl)-6,7-dihydro-1H-imidazo[4,5-c]pyridin-5(4H)-yl)(5-(1,5-dimethyl-1H-pyrazol-4-yl)-1,3,4-oxadiazol-2-yl)methanone], the AC50 was below 500 nM.
Turning to `O=C(c1nnc(-c2cnn(C(F)F)c2)o1)N1CCc2[nH]cnc2[C@@H]1c1cc2cccc(Cl)n2n1` [Example 1121, (R)-(4-(7-chloropyrazolo[1,5-a]pyridin-2-yl)-6,7-dihydro-1H-imidazo[4,5-c]pyridin-5(4H)-yl)(5-(1-(difluoromethyl)-1H-pyrazol-4-yl)-1,3,4-oxadiazol-2-yl)methanone], the half-maximal activity concentration (AC50) is 1000 to 5000 nM.
For the molecule `CC(C)(F)c1nc(C(F)F)c(C(=O)N2CCc3[nH]cnc3[C@H]2c2cc3c(F)cccn3n2)o1` [Example 1226, (S)-(4-(difluoromethyl)-2-(2-fluoropropan-2-yl)oxazol-5-yl)(4-(4-fluoropyrazolo[1,5-a]pyridin-2-yl)-6,7-dihydro-1H-imidazo[4,5-c]pyridin-5(4H)-yl)methanone], the AC50 was below 500 nM.
With `Cc1ncccc1-c1nnc(C(=O)N2CCc3[nH]cnc3[C@@H]2c2cc3c(C)cccn3n2)o1` [Example 1331, (R)-(4-(4-methylpyrazolo[1,5-a]pyridin-2-yl)-6,7-dihydro-1H-imidazo[4,5-c]pyridin-5(4H)-yl)(5-(2-methylpyridin-3-yl)-1,3,4-oxadiazol-2-yl)methanone], the AC50 was 1000 to 5000 nM.
As to `O=C(c1cnn2cc(-c3ccccn3)ccc12)N1CCc2[nH]cnc2[C@@H]1c1cc2ccccn2n1` [Example 1417, (R)-(4-(pyrazolo[1,5-a]pyridin-2-yl)-6,7-dihydro-1H-imidazo[4,5-c]pyridin-5(4H)-yl)(6-(pyridin-2-yl)pyrazolo[1,5-a]pyridin-3-yl)methanone], the AC50 is 1000 to 5000 nM.
